The results in this text go back to patent US12622917B2, “High-activity Wnt pathway inhibitor compound” (ADLAI NORTYE BIOPHARMA CO., LTD., priority 2020, dated 2026).

Read-outs that look alike come from different tables or passages of the source.

The subject of assay [1] is Colo205-LUC-TCF/LEF M1 reporter cell line (Wnt pathway). Briefly: Colo205-LUC-TCF/LEF M1 reporter gene (luciferase) inhibition. Type of assay: cell-based. As to conditions: 4 hours incubation, luciferase readout. In short, it runs like this: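 Luminescent readout of TCF/LEF-regulated luciferase after a 4 h, 37° C compound exposure in a stable Colo205 reporter clone (10,000 cells/well). Serial 3-fold dilutions started at 20 uM; IC50 derived using DMSO-treated cells and no-cell wells as controls.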
(In general: In a reporter assay the amount or activity of a reporter protein is the signal.)

A further assay has as its system Colo205. The assay can be described thus: Proliferation inhibition, Wnt mutant cell line Colo205. In kind it is cell-based. As to conditions: Colo205, Wnt pathway-dependent, 96 hours, read-out: Antiproliferative IC50 Colo205. In short, it runs like this:
(§1)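 Read-out is a Promega cell viability signal that rises with proliferation, taken after 96 hours of compound treatment. Compound was dosed as a 3-fold dilution series up to 20 uM final, one day after plating 1000 log-phase cells per well; IC50 is calculated against DMSO and no-cell controls.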

The subject of a further assay is DU4475. The assay can be described thus: Proliferation inhibition, Wnt mutant cell line DU4475. Type of assay: cell-based. The settings on record: DU4475, Wnt pathway-dependent, 96 hours, read-out: Antiproliferative IC50 DU4475. In short, it runs like this: as §1
The next assay has as its system Hela. Briefly: Proliferation inhibition, non-Wnt mutant control cell line Hela. In kind it is cell-based. As to conditions: Wnt-independent control cell line, 96 hours, read-out: Antiproliferative IC50 Hela. The method in brief:
as §1

The test system of the next assay is RKO. The assay can be described thus: Proliferation inhibition, non-Wnt mutant control cell line RKO. In kind it is cell-based. As to conditions: Wnt-independent control cell line, 96 hours, read-out: Antiproliferative IC50 RKO. In short, it runs like this:
as §1

A further assay deals with NCI-H929. The assay can be described thus: Proliferation inhibition, NCI-H929 cell line. In kind it is cell-based, human. The settings on record: NCI-H929 cells, 96 hours culture, cell viability detection, read-out: Antiproliferative IC50 NCI-H929. The method in brief: (§2)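 Wnt-dependent proliferation in HepG2 and NCI-H929 cells, seeded at 4000 cells/well and pre-incubated 20-24 h at 37 °C. Cells were then exposed for 96 h to 3-fold serial dilutions (top final concentration 20 uM), and viability was read by signal intensity. IC50 was referenced to DMSO-only wells and cell-free wells.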

The subject of assay [2] is human myeloma cell NCI-H929 SCID xenograft. Briefly: Tumor growth inhibition, NCI-H929 mouse xenograft model. In kind it is in vivo. As to conditions: 30 mg/kg, PO, QD x 21. As for the experimental part:
In this study, human myeloma cell NCI-H929 SCID xenograft model was used to evaluate the anti-tumor activity of compound 11 in vivo.
Female SCID were subcutaneously inoculated with human myeloma cells NCI-H929 to establish the NCI-H929 SCID xenograft model. After the tumor grew to an average tumor volume of about 80 mm^3, the tumor-bearing mice were randomly divided into two groups according to the tumor volume: the solvent-treated control group and the 30 mg/kg compound 11 group. Compound 11 was administered orally, once a day, and the administration cycle was 21 days. The tumor volume was measured every other day, and the body weight and tumor volume were measured on Day 21 (Table 4 and FIG. 1).

The next assay deals with HepG2. Briefly: Proliferation inhibition, HepG2 cell line. In kind it is cell-based. The settings on record: Homo sapiens; HepG2 cells, 96 hours culture, cell viability detection; read-out: Antiproliferative IC50 HepG2. The method in brief: as §2

Take “(S)-4,5-dimethyl-2-(((6-((6-(trifluoromethyl)pyridin-3-yl)oxy)pyridin-3-yl)methyl)amino)-4,5,9,10-tetrahydro-6H,8H-pyrido[3,2,1-de]pteridin-6-one [Example 11]”: the IC50 – broadly, the concentration that inhibits the measured activity by half – was 61 nM in assay [1]; 32 nM in the assay with Colo205; 37 nM in the assay with DU4475; more than 10000 nM in the assay with Hela; more than 10000 nM in the assay with RKO; 55 nM in the assay with NCI-H929. For the same compound, in assay [2], the “% T/CRTV Day 21” value is reported as 1.59%. The “% TGITW Day 21” value in assay [2] is 98.86%. The “% TGItv Day 21” value in assay [2] came to 98.42%. Moreover, the “RTV Day 21” value in assay [2] stood at 0.33. Besides, the “Tumor weight Day 21” value in assay [2] is given as 0.023 g.

For the compound `CO[C@H](C)[C@H]1C(=O)N2CCCc3nc(NCc4ccc(Oc5ccc(C(F)(F)F)nc5)nc4)nc(c32)N1C` [114 (W243), (S)-5-((R)-1-methoxyethyl)-4-methyl-2-(((6-((6-(trifluoromethyl)pyridin-3-yl)oxo)pyridin-3-yl)methyl)amino)-4,5,9,10-tetrahydro-6H,8H-pyrido[3,2,1-de]pteridin-6-one], the IC50 in assay [1] was 27 nM; in the assay with Colo205 (Homo sapiens, COLO 205), 23 nM; with DU4475 (Homo sapiens, DU-4475), 20 nM; in the assay with Hela (Homo sapiens) it was more than 10000 nM; in the assay on RKO (Homo sapiens), more than 10000 nM; in the assay with NCI-H929 (Homo sapiens), 60 nM. Moreover, in the assay with HepG2, the concentration for half-maximal inhibition (IC50) is 37 nM.

Regarding `C[C@H]1C(=O)N2CCCc3nc(NCc4ccc(Oc5cnc(C(F)(F)F)nc5)nc4)nc(c32)N1C` [91 (W221)], the 50% inhibitory concentration (IC50) in assay [1] is 28 nM; with Colo205 (Homo sapiens, COLO 205) it was 31 nM; with DU4475 (Homo sapiens, DU-4475) it was 24 nM; in the assay on Hela (Homo sapiens), more than 10000 nM; in the assay on RKO (Homo sapiens) it was more than 10000 nM; in the assay on NCI-H929 (Homo sapiens), 65 nM. In the assay on HepG2, the IC50 was determined as 35 nM.
